Consider 4 compounds from US20150132852A1, “TISSUE CULTURING METHOD, CULTURING METHOD OF FERNS AND EXPLANT OBTAINED THEREFROM” (Chunghwa Picture Tubes, Ltd., priority 2013, published 2015).

Test [1] has as its system callus rounds of Davallia mariesii. Briefly: Sporophyte regeneration from callus rounds under various cytokinins. The format is cell-based. The procedure: Finally, the callus round is further cultured in a culture fluid at 23° C. to 25° C. and 11 to 14 μmol^−2 s^−1 (Light:Dark=16:8) for between to 150 days (preferably for 120 days), and are preferably sub-cultured every fifteen days till the callus round regenerates a sporophyte. In this situation, the callus round will keep on growing, and can reach 0.57 cm to 0.7 cm in diameter after approximately 60 days, and reach 1.2 cm to 1.34 cm in 120 days. In the present example, the culture fluid comprises ½ MS medium. In other examples, the culture fluid can further comprise 1 to 5 mg/l N6-(delta 2-isopentenyl)-adenine (2ip), 6-benzylaminopurine (BA) and kinetin, particularly for 1 mg/l N6-(delta 2-isopentenyl)-adenine (2ip). […] Additionally, a regenerated sporophyte of the present example can be further transplanted to a solid medium till it has more than 3 cm length (preferably for 3.5 cm length) for growing into a plant, wherein the plant has a survival rate of up to 90.3%. In the present experiment, callus rounds, being 0.14±0.03 g and 0.21±0.02, are prepared wherein every four are cultured in a culture fluid to induce the callus rounds to regenerate sporophytes, wherein the medium comprises ½ MS medium (including a small amount of sucrose, namely 20 g/l sucrose) and various cytokinins in various amounts as listed in TABLE 3. After 60 days and 120 days of culturing, respectively, sporophytes obtained in each medium are collected and analyzed to record the size of the callus rounds and the number and length of sporophytes regenerated from the callus rounds.

For test [2], the system named is chopped prothallium of Davallia mariesii. The test can be described thus: Calluses induction from chopped prothallium under various growth regulators. The format is cell-based. The conditions noted are these: 60 days. The procedure: The prothallium is chopped up into small pieces being 0.1 cm to 0.2 cm in width and cultured (suspending culture) in a medium, wherein the medium comprises ½ MS medium (Murashige and Skoog, 1962) having a composition as shown in TABLE 1. In other examples, the medium can also comprise Knop medium (Murashige and Skoog, 1962) or knudson medium (Knudson, 1946). Precisely, 0.1 g chopped prothallium are cultured in 10 ml ½ MS medium, which are shake cultured at 85 rpm for forty to eighty days, and preferably at 23° C. to 25° C. and 11 to 14 μmol^−2 s^−1 (Light:Dark=16:8) for sixty days, and are sub-cultured every thirty days. In the present experiment, a plurality of 50 ml flasks are prepared, each having 0.1 g chopped prothallium of Davallia mariesii (in 0.1 cm to 0.2 cm pieces) being cultured in a medium therein, wherein the medium comprises 10 ml ½ MS medium (including a small amount of sucrose, namely 20 g/l sucrose) and various growth regulators in various amounts as listed in TABLE 2. After 60 days of culturing, calluses obtained in each flask are collected and analyzed respectively, to record the size, weight and number of each callus.

The mark [3] stands for this setting: 1 mg/l in culture fluid, 120 days.
The mark [4] stands for this setting: single growth regulator 1 mg/L in 1/2 MS medium.
The mark [5] stands for this setting: single growth regulator 2 mg/L in 1/2 MS medium.
The mark [6] stands for this setting: single growth regulator 5 mg/L in 1/2 MS medium.

As to `CC(C)=CCNc1ncnc2nc[nH]c12` [2ip, N6-(delta 2-isopentenyl)-adenine], the “induction rate of sporophytes” value in test [1] (setting [3]) is reported as 100%. Further, the “proliferation rate of the callus” value in test [1] (setting [3]) is given as 537±161.2%. The “Diameter (cm) of callus round and sporophyte thereon” value (“Diameter (cm)” for short) turned out to be 0.57 ± 0.04 cm in test [1] (cytokinin 1 mg/L, 60 days); 1.34 ± 0.22 cm in test [1] (cytokinin 1 mg/L, 120 days); 0.60 ± 0.03 cm in test [1] (cytokinin 2 mg/L, 60 days); 1.46 ± 0.21 cm in test [1] (cytokinin 2 mg/L, 120 days); 0.38 ± 0.03 cm in test [1] (cytokinin 5 mg/L, 60 days); 0.91 ± 0.24 cm in test [1] (cytokinin 5 mg/L, 120 days). In addition, the “Induction Rate (%) of sporophyte” value is 100.0% in test [1] (cytokinin 1 mg/L, 60 days); 100.0% in test [1] (cytokinin 1 mg/L, 120 days); 100.0% in test [1] (cytokinin 2 mg/L, 60 days); 100.0% in test [1] (cytokinin 2 mg/L, 120 days); 0.0% in test [1] (cytokinin 5 mg/L, 60 days); 8.3% in test [1] (cytokinin 5 mg/L, 120 days). In addition, the “Proliferation Rate (%) of callus round” value in test [1] (cytokinin 1 mg/L, 60 days) was determined as 208.9 ± 24.1%; in test [1] (cytokinin 1 mg/L, 120 days), 537.5 ± 161.2%; in test [1] (cytokinin 2 mg/L, 60 days) it was 156.0 ± 22.2%; in test [1] (cytokinin 2 mg/L, 120 days), 386.3 ± 99.7%; in test [1] (cytokinin 5 mg/L, 60 days), 64.9 ± 18.3%; in test [1] (cytokinin 5 mg/L, 120 days), 208.3 ± 67.9%.

For `c1ccc(CNc2ncnc3nc[nH]c23)cc1` [BA, 6-benzylaminopurine], the “Diameter (cm)” value in test [1] (cytokinin 1 mg/L, 60 days) is listed as 0.29 ± 0.05 cm; in test [1] (cytokinin 1 mg/L, 120 days) it was 0.97 ± 0.15 cm; in test [1] (cytokinin 2 mg/L, 60 days), 0.42 ± 0.06 cm; in test [1] (cytokinin 2 mg/L, 120 days) it was 0.77 ± 0.13 cm; in test [1] (cytokinin 5 mg/L, 60 days), 0.41 ± 0.06 cm; in test [1] (cytokinin 5 mg/L, 120 days) it was 0.88 ± 0.16 cm. The “Induction Rate (%) of sporophyte” value was determined as 0.0% in test [1] (cytokinin 1 mg/L, 60 days); 0.0% in test [1] (cytokinin 1 mg/L, 120 days); 0.0% in test [1] (cytokinin 2 mg/L, 60 days); 0.0% in test [1] (cytokinin 2 mg/L, 120 days); 0.0% in test [1] (cytokinin 5 mg/L, 60 days); 0.0% in test [1] (cytokinin 5 mg/L, 120 days). For the same compound, the “Proliferation Rate (%) of callus round” value in test [1] (cytokinin 1 mg/L, 60 days) is 40.5 ± 16.6%; in test [1] (cytokinin 1 mg/L, 120 days) it was 191.1 ± 71.5%; in test [1] (cytokinin 2 mg/L, 60 days), 89.9 ± 22.9%; in test [1] (cytokinin 2 mg/L, 120 days), 300.0 ± 38.6%; in test [1] (cytokinin 5 mg/L, 60 days), 41.1 ± 16.3%; in test [1] (cytokinin 5 mg/L, 120 days), 216.7 ± 38.7%.

With `c1coc(CNc2ncnc3nc[nH]c23)c1` [Kinetin, 6-Furfurylamino-purine], the “Diameter (cm)” value in test [1] (cytokinin 1 mg/L, 60 days) worked out at 0.31 ± 0.06 cm; in test [1] (cytokinin 1 mg/L, 120 days), 0.63 ± 0.09 cm; in test [1] (cytokinin 2 mg/L, 60 days), 0.23 ± 0.05 cm; in test [1] (cytokinin 2 mg/L, 120 days), 1.02 ± 0.06 cm; in test [1] (cytokinin 5 mg/L, 60 days) it was 0.32 ± 0.07 cm; in test [1] (cytokinin 5 mg/L, 120 days) it was 1.13 ± 0.10 cm. Also, the “Induction Rate (%) of sporophyte” value is 0.0% in test [1] (cytokinin 1 mg/L, 60 days); 16.7% in test [1] (cytokinin 1 mg/L, 120 days); 0.0% in test [1] (cytokinin 2 mg/L, 60 days); 0.0% in test [1] (cytokinin 2 mg/L, 120 days); 0.0% in test [1] (cytokinin 5 mg/L, 60 days); 0.0% in test [1] (cytokinin 5 mg/L, 120 days). Moreover, the “Proliferation Rate (%) of callus round” value was determined as 82.1 ± 24.3% in test [1] (cytokinin 1 mg/L, 60 days); 231.0 ± 83.5% in test [1] (cytokinin 1 mg/L, 120 days); 47.0 ± 12.2% in test [1] (cytokinin 2 mg/L, 60 days); 182.1 ± 88.4% in test [1] (cytokinin 2 mg/L, 120 days); 72.6 ± 17.5% in test [1] (cytokinin 5 mg/L, 60 days); 217.9 ± 70.9% in test [1] (cytokinin 5 mg/L, 120 days). Moreover, the entries for the “Calluses (numbers), callus round in 0.1-0.2 cm” value in test [2] (setting [4]), in test [2] (setting [5]) and in test [2] (setting [6]) were 73.67 ± 14.38 numbers, 21.00 ± 3.74 numbers and 6.00 ± 5.35 numbers, respectively. Also, the results for the “Proliferation Rate (%)” value in test [2] (setting [4]), in test [2] (setting [5]) and in test [2] (setting [6]) were 153.3 ± 24.9%, 66.6 ± 17.0% and 23.3 ± 4.7%, respectively.

Turning to `O=C(O)Cc1cccc2ccccc12` [NAA, 1-Naphthaleneacetic acid], the “Calluses (numbers), callus round in 0.1-0.2 cm” value in test [2] (setting [4]) stood at 54.33 ± 9.46 numbers; in test [2] (setting [5]), 23.67 ± 1.25 numbers; in test [2] (setting [6]), 0.00 ± 0.00 numbers. Further, the “Proliferation Rate (%)” value in test [2] (setting [4]) stood at 96.6 ± 17.0%; in test [2] (setting [5]), 53.3 ± 20.6%; in test [2] (setting [6]) it was 23.3 ± 4.7%.
